pIC50: −log10 of the molar value.
Tests used:
P2Y purinoceptor 12 [1] = biological target: T1, P2Y purinoceptor 12 (Homo sapiens, UniProt Q9H244); experiment: Displacement of [3H]-2-Mes-ADP from human P2Y12 receptor
[2] = Cmax in beagle dog at 10 mg/kg, po administered via oral gavage by LC/MS analysis; assay type: ADME, organism-based, Canis lupus familiaris; conditions: in vivo
[3] = Terminal half life in beagle dog at 10 mg/kg, po administered via oral gavage by LC/MS analysis; assay type: ADME, organism-based, Canis lupus familiaris; conditions: in vivo, read-out: beta t1/2 (converted)
P2Y purinoceptor 12 [4] = biological target: T1, P2Y purinoceptor 12; experiment: Antagonist activity at P2Y12 receptor (unknown origin) by GTPgammaS binding assay; assay type: functional
P2Y purinoceptor 12 [5] = biological target: T1, P2Y purinoceptor 12; experiment: Binding affinity to P2Y12 receptor (unknown origin)
[6] = Oral bioavailability in rat; assay type: ADME, organism-based; conditions: in vivo
[7] = Clearance in rat; assay type: ADME, organism-based; conditions: in vivo
P2Y purinoceptor 12 [8] = biological target: T1, P2Y purinoceptor 12; experiment: Displacement of [3H]-2-Mes-ADP from human P2Y12 receptor in platelets by scintillation counter
P2Y purinoceptor 12 [9] = biological target: T1, P2Y purinoceptor 12; experiment: Antagonist activity at P2Y12 receptor (unknown origin)

T1 sequence (Q9H244 whole entry): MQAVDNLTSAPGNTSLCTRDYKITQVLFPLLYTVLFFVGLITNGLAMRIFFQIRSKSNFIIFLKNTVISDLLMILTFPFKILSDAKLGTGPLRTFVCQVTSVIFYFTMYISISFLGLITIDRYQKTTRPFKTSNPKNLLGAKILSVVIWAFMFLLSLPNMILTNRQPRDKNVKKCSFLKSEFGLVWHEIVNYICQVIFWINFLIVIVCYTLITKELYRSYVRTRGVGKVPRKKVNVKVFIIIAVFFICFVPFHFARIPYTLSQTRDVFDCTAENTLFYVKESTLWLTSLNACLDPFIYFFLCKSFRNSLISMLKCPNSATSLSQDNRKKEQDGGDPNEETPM

CCOC(=O)N1CCN(C(=O)[C@H](CCC(=O)O)NC(=O)c2cc(OC(C)(C)C(=O)OCC)c3ccc(C)cc3n2)CC1
pIC50 (P2Y purinoceptor 12 [1]): 7.54
Cmax [2]: 14 µM
half-life [3]: 0.2 h

CCOC(=O)c1cc(C#N)c(N2CCN(C(=O)NS(=O)(=O)c3ccc(Cl)s3)CC2)nc1C
pIC50 (P2Y purinoceptor 12 [4]): 7.15
pIC50 (P2Y purinoceptor 12 [5]): 7.40
bioavailability [6]: 15%
clearance [7]: 16 mL/min/kg

CCOC(=O)c1cc(C#N)c(N2CC(C(=O)NS(=O)(=O)c3ccc(Cl)s3)C2)nc1C
pIC50 (P2Y purinoceptor 12 [5]): 7.22
clearance [7]: 3 mL/min/kg

CCOC(=O)N1CCN(C(=O)[C@H](CCC(=O)O)NC(=O)c2cc(OC(C)(C)C(=O)O)c3ccc(C)cc3n2)CC1
pIC50 (P2Y purinoceptor 12 [1]): 8.28
half-life [3]: 7 h

CCc1cnc(-c2cc(C#N)c(N3CC(C(=O)NS(=O)(=O)c4ccc(Cl)s4)C3)nc2C)o1
pIC50 (P2Y purinoceptor 12 [4]): 7.66
pIC50 (P2Y purinoceptor 12 [5]): 6.36
clearance [7]: 16 mL/min/kg

CNc1cc2[nH]c(=O)n(-c3ccc(NC(=O)NS(=O)(=O)c4ccc(Cl)s4)cc3)c(=O)c2cc1F [ELINOGREL]
pIC50 (P2Y purinoceptor 12 [8]): > 8.00

CCCSc1nc(N[C@@H]2C[C@H]2c2ccc(F)c(F)c2)c2nnn([C@@H]3C[C@H](OCCO)[C@@H](O)[C@H]3O)c2n1 [TICAGRELOR]
pIC50 (P2Y purinoceptor 12 [9]): 8.30

Source: ChEMBL document CHEMBL3797132, “State of affairs: Design and structure-activity relationships of reversible P2Y12 receptor antagonists” (Bioorg Med Chem Lett, 2016)
